In brackets after ≈: the same amount, converted by molar mass.
What was measured:
Format in all cases: cell-based
S. aureus ATCC 13709 = experiment: MIC, S. aureus ATCC 13709 (Alamar Blue broth microdilution); conditions: for MIC: Staphylococcus aureus
S. pneumoniae ATCC 51916 = experiment: MIC, S. pneumoniae ATCC 51916; conditions: for MIC: Streptococcus pneumoniae, ATCC51916, Spn = S. pneumoniae
E. coli ATCC 25922 = experiment: MIC, E. coli ATCC 25922; conditions: for MIC: Escherichia coli
P. aeruginosa ATCC 15692 = experiment: MIC, P. aeruginosa ATCC 15692; conditions: for MIC: Pseudomonas aeruginosa, ATCC15692, Pa = P. aeruginosa
A. baumannii ATCC 19606 = experiment: MIC, A. baumannii ATCC 19606; conditions: strain not given; for MIC: Acinetobacter baumannii, ATCC19606, Ab = A. baumannii
[1] = system: K. pneumoniae ATCC 700603; experiment: MIC, K. pneumoniae ATCC 700603; conditions: for MIC: Klebsiella pneumoniae, ATCC700603, read-out: MIC Kpn; for MIC Kpn: Kpn = K. pneumoniae
Y. pestis CO92 pgm- = experiment: microbe, parasite or virus in culture; conditions: for MIC Yp: Yp = Y. pestis
[2] = system: B. thailandensis ATCC E264; experiment: microbe, parasite or virus in culture
[3] = system: F. tularensis holarctica LVS; experiment: microbe, parasite or virus in culture; conditions: for MIC Ft: Ft = F. tularensis, strain not given
[4] = ATCC13709, S. aureus, Alamar Blue read after overnight incubation at 35° C.
[5] = ATCC25922, E. coli, Alamar Blue read after overnight incubation at 35° C.
[6] = ATCC25922, Ec = E. coli, strain not given
[7] = S. aureus, Alamar Blue read after overnight incubation at 35° C.
[8] = E. coli, Alamar Blue read after overnight incubation at 35° C.

Row | SMILES | MIC (S. aureus ATCC 13709; [4]) [µg/mL] | MIC (S. aureus ATCC 13709; ATCC13709, Sa = S. aureus) [µg/mL] | MIC (S. pneumoniae ATCC 51916) [µg/mL] | MIC (E. coli ATCC 25922; [5]) [µg/mL] | MIC (E. coli ATCC 25922; [6]) [µg/mL] | MIC (P. aeruginosa ATCC 15692) [µg/mL] | MIC (A. baumannii ATCC 19606) [µg/mL] | MIC [1] [µg/mL] | also measured
1 | CNc1cc(F)cc2c1[nH]c1nc(Oc3cnc(C)nc3)nc(N3CCC4(CC4N)C3)c12 (stereo not drawn) [4.066] | ≤ 0.5 | ≤ 0.5 | ≤ 0.5 | ≤ 0.5 | ≤ 0.5 | 2 (≈ 4.6 µM) | ≤ 0.5 | 2 (≈ 4.6 µM) | MIC (Y. pestis CO92 pgm-; Yersinia pestis, CO92PGM, read-out: MIC Yp): ≤ 0.5 µg/mL; MIC ([2]; Burkholderia thailandensis, ATCCE264, read-out: MIC Bt): ≤ 0.5 µg/mL; MIC ([3]; Francisella tularensis, read-out: MIC Ft): 1 µg/mL (≈ 2.3 µM)
2 | CNc1cc(F)cc2c1[nH]c1nc(Oc3cnc(C)nc3)nc(N3CCC4(CCC4N)C3)c12 (stereo not drawn) [4.117] | – | – | – | – | – | – | – | – | MIC Sa (S. aureus ATCC 13709; [7]): ≤0.5 µg/mL; MIC Sa (S. aureus ATCC 13709; Sa = S. aureus): ≤0.5 µg/mL; MIC Spn (S. pneumoniae ATCC 51916): ≤0.5 µg/mL; MIC Ec (E. coli ATCC 25922; [8]): ≤0.5 µg/mL; MIC Ec (E. coli ATCC 25922; Ec = E. coli, strain not given): ≤0.5 µg/mL; MIC Pa (P. aeruginosa ATCC 15692): 1 µg/mL (≈ 2.23 µM); MIC Ab (A. baumannii ATCC 19606): ≤0.5 µg/mL; MIC Kpn [1]: 2 µg/mL (≈ 4.46 µM); MIC Yp (Y. pestis CO92 pgm-): ≤0.5 µg/mL; MIC Bt [2]: ≤0.5 µg/mL; MIC Ft [3]: 1 µg/mL (≈ 2.23 µM)
3 | CNc1cc(F)cc2c1[nH]c1nc(Oc3cnc(C)nc3)nc(N3CC4CCCNC4C3)c12 (stereo not drawn) [4.079] | – | – | – | – | – | – | – | – | MIC Sa (S. aureus ATCC 13709; [7]): ≤0.5 µg/mL; MIC Sa (S. aureus ATCC 13709; Sa = S. aureus): ≤0.5 µg/mL; MIC Spn (S. pneumoniae ATCC 51916): ≤0.5 µg/mL; MIC Ec (E. coli ATCC 25922; [8]): ≤0.5 µg/mL; MIC Ec (E. coli ATCC 25922; Ec = E. coli, strain not given): ≤0.5 µg/mL; MIC Pa (P. aeruginosa ATCC 15692): 4 µg/mL (≈ 8.92 µM); MIC Ab (A. baumannii ATCC 19606): ≤0.5 µg/mL; MIC Kpn [1]: 8 µg/mL (≈ 17.8 µM); MIC Yp (Y. pestis CO92 pgm-): ≤0.5 µg/mL; MIC Bt [2]: 1 µg/mL (≈ 2.23 µM); MIC Ft [3]: 4 µg/mL (≈ 8.92 µM)
4 | CNc1cc(F)cc2c1[nH]c1nc(Oc3cnc(C(C)O)nc3)nc(N3CC4(CC[C@H]4N)C3)c12 (stereo partly drawn) [4.410] | ≤ 0.5 | ≤ 0.5 | ≤ 0.5 | ≤ 0.5 | ≤ 0.5 | 1 (≈ 2.15 µM) | 2 (≈ 4.31 µM) | 2 (≈ 4.31 µM) | –
5 | CNc1cc(F)c(C)c2c1[nH]c1nc(Oc3cnc(C)nc3)nc(N3C[C@H](N)C4(CC4)C3)c12 [6.29] | ≤ 0.5 | ≤ 0.5 | ≤ 0.5 | ≤ 0.5 | ≤ 0.5 | 2 (≈ 4.46 µM) | ≤ 0.5 | 2 (≈ 4.46 µM) | –
6 | CNc1cc(F)cc2c1[nH]c1nc(Oc3cnc(C)nc3)nc(N3C[C@@H]4[C@H](N)C[C@]4(C)C3)c12 [4.151] | ≤ 0.5 | ≤ 0.5 | ≤ 0.5 | ≤ 0.5 | ≤ 0.5 | 1 (≈ 2.23 µM) | ≤ 0.5 | 1 (≈ 2.23 µM) | –
7 | CNc1cc(F)cc2c1[nH]c1nc(Oc3cnc(C)nc3)nc(N3C[C@@H]4[C@H](C3)[C@@]4(N)C(N)=O)c12 [4.160] | ≤ 0.5 | ≤ 0.5 | ≤ 0.5 | 2 (≈ 4.32 µM) | 2 (≈ 4.32 µM) | > 16 | > 16 | > 16 | –
8 | CNc1cc(F)cc2c1[nH]c1nc(Oc3cnc(C(C)O)nc3)nc(N3CC4C[C@@H](N)C4C3)c12 (stereo partly drawn) [4.409] | ≤ 0.5 | ≤ 0.5 | ≤ 0.5 | ≤ 0.5 | ≤ 0.5 | 1 (≈ 2.15 µM) | 1 (≈ 2.15 µM) | 4 (≈ 8.61 µM) | –
9 | CNc1cc(F)c(F)c2c1[nH]c1nc(Oc3cnc(N)nc3)nc(N3CC(N)C4(CC4)C3)c12 (stereo not drawn) [5.11] | – | – | – | – | – | – | – | – | MIC Sa (S. aureus ATCC 13709; [7]): ≤0.5 µg/mL; MIC Sa (S. aureus ATCC 13709; Sa = S. aureus): ≤0.5 µg/mL; MIC Spn (S. pneumoniae ATCC 51916): ≤0.5 µg/mL; MIC Ec (E. coli ATCC 25922; [8]): ≤0.5 µg/mL; MIC Ec (E. coli ATCC 25922; Ec = E. coli, strain not given): ≤0.5 µg/mL; MIC Pa (P. aeruginosa ATCC 15692): 4 µg/mL (≈ 8.82 µM); MIC Ab (A. baumannii ATCC 19606): 2 µg/mL (≈ 4.41 µM); MIC Kpn [1]: 4 µg/mL (≈ 8.82 µM)
10 | CNc1cc(F)cc2c1[nH]c1nc(Oc3cnc(C)nc3)nc(N3CC4NCCC4(C)C3)c12 (stereo not drawn) [4.157] | ≤ 0.5 | ≤ 0.5 | ≤ 0.5 | ≤ 0.5 | ≤ 0.5 | 8 (≈ 17.8 µM) | ≤ 0.5 | 4 (≈ 8.92 µM) | –
11 | CNc1cc(F)c(C)c2c1[nH]c1nc(Oc3cnc(C)nc3)nc(N3CC4C[C@@H]3C[C@H]4N)c12 [6.28] | ≤ 0.5 | ≤ 0.5 | ≤ 0.5 | ≤ 0.5 | ≤ 0.5 | 1 (≈ 2.23 µM) | ≤ 0.5 | 2 (≈ 4.46 µM) | –
12 | CNc1cc(F)c(F)c2c1[nH]c1nc(Oc3cnc(C)nc3)nc(N3CC4(CCC4N)C3)c12 (stereo not drawn) [5.01] | – | – | – | – | – | – | – | – | MIC Sa (S. aureus ATCC 13709; Sa = S. aureus): ≤0.5 µg/mL; MIC Spn (S. pneumoniae ATCC 51916): ≤0.5 µg/mL; MIC Ec (E. coli ATCC 25922; Ec = E. coli, strain not given): ≤0.5 µg/mL; MIC Pa (P. aeruginosa ATCC 15692): ≤0.5 µg/mL; MIC Ab (A. baumannii ATCC 19606): ≤0.5 µg/mL; MIC Kpn [1]: 1 µg/mL (≈ 2.21 µM)
13 | CNc1cc(F)cc2c1[nH]c1nc(Oc3ccc(C#N)nc3)nc(N3C[C@H]4C[C@@H]3C[C@H]4N)c12 [4.434] | ≤ 0.5 | ≤ 0.5 | ≤ 0.5 | ≤ 0.5 | ≤ 0.5 | 1 (≈ 2.25 µM) | ≤ 0.5 | 1 (≈ 2.25 µM) | –
14 | CNNc1cc(F)cc2c1[nH]c1nc(Oc3cnc(C)nc3)nc(N3CC4C(N)C4C3)c12 (stereo not drawn) [2.1] | – | – | – | – | – | – | – | – | MIC Sa (S. aureus ATCC 13709; [7]): ≤0.5 µg/mL; MIC Ec (E. coli ATCC 25922; [8]): >16 µg/mL
15 | CNc1cc(F)cc2c1[nH]c1nc(Oc3cncc(F)c3)nc(N3CC4C(N)C4C3)c12 (stereo not drawn) [4.055] | ≤ 0.5 | – | – | ≤ 0.5 | – | – | – | – | –
16 | CNc1cc(F)cc2c1[nH]c1nc(Oc3cncnc3)nc(N3C[C@H]4CC[C@@H](CN)[C@H]4C3)c12 [4.021] | ≤ 0.5 | – | – | 2 (≈ 4.46 µM) | – | – | – | – | –

Source: patent US10858360B2, “Tricyclic gyrase inhibitors” (priority 2011, dated 2020)
